The record followed here is PubChem BioAssay (NCI).

Holding throughout (assay): NCI-60 cell line screen, 48 h
Test [1] concerns MDA-MB-435.
In test [2] the test system is NCI-H460 lung.
The test system of test [3] is OVCAR-3 ovarian.
Test [4] has as its system BT-549 breast.
Test [5] relates to DU-145 prostate.
Test [6] concerns MCF7 breast.
For test [7], the system named is SK-OV-3 ovarian.
The subject of test [8] is ACHN renal.
Test [9] deals with OVCAR-4 ovarian.
Test [10] has as its system SF-268 CNS.
The subject of test [11] is HOP-62 NSCLC.
For test [12], the system named is PC-3 prostate.
Test [13] has as its system A549 NSCLC.
Test [14] has as its system LOX IMVI melanoma.
The test system of test [15] is SN12C renal.
Test [16] relates to HOP-92 NSCLC.
Test [17] has as its system NCI-H522 lung.
In test [18] the test system is HL-60(TB) leukemia.

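In this assay, cells in 96-well plates receive the compound at five concentrations for 48 hours. Endpoints are linearly interpolated between the surrounding concentrations. The concentration for full growth arrest is given as TGI.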 Bounds are passed on as bounds.

As for `Cn1c2ccccc2c(=O)c2cccc(C(=O)NCC(=O)O)c21`, the TGI in test [1], in test [2], in test [3], in test [4], in test [5] and in test [6] was above 100 µM each time. The TGI in test [7], in test [8], in test [9], in test [10], in [11] and in test [12] was above 100 µM each time. The TGI in test [13], in [14] and in test [15] was above 100 µM in each case.

Consider `c1ccc(C(=NCCC2CNc3ccccc32)c2ccccc2)cc1` (stereo not drawn), for which the TGI in test [1], in test [2], in [3], in test [16], in test [4] and in test [5] was above 100 µM each time. Also, the TGI in [6], in test [17], in test [7], in test [8], in [9] and in test [11] was above 100 µM throughout. The TGI in test [12] and in [13] was above 100 µM in each case.

In the case of `COC(=O)[C@H]1COC(=O)N1`, the TGI in [1], in [2], in [3], in test [16], in test [4] and in test [5] was above 100 µM in each case. Moreover, the TGI in test [6], in [17], in [7], in test [8], in test [9] and in test [10] was above 100 µM each time. Further, the TGI in test [11], in test [13], in [14], in [18] and in test [15] was above 100 µM in each case.

In the case of `CN(C)c1ccc(C2CC(c3ccc4ccccc4c3O)=NN2c2ccc([N+](=O)[O-])cc2[N+](=O)[O-])cc1` (stereo not drawn), the TGI in [1] was 34.6 µM; in [2] it was above 100 µM; in test [3], above 100 µM; in test [16], above 100 µM; in test [4], above 100 µM; in [5], above 100 µM. The TGI in test [6], in [17], in [7], in [8], in [9] and in [10] was above 100 µM throughout. For the same compound, the TGI in [11], in test [12], in test [13] and in [15] was above 100 µM each time.

Turning to `Oc1c(Br)cc(/C=C/c2cccc(/C=C/c3cc(Br)c(O)c(Br)c3)n2)cc1Br`, the TGI in test [1] is 46.5 µM; in test [2] it was 11.3 µM; in [3], 31.1 µM; in test [16], 29.6 µM; in [4], above 100 µM; in test [5] it was 14.1 µM. For the same compound, the TGI was 42.5 µM in test [6]; 62.9 µM in test [7]; 52.3 µM in test [8]; 35.7 µM in test [9]; 32.9 µM in test [10]; above 100 µM in test [11]. Besides, the TGI was 25.1 µM in test [12], 14.9 µM in test [13], 28.8 µM in [14] and 24.3 µM in [15].

For `COc1cc2c(cc1OC)C(=O)C1(C2)[C@H](c2ccccc2)C2C(=O)c3cc(OC)c(OC)cc3C2[C@H]1c1ccccc1` (stereo partly drawn), the TGI in test [1], in test [2], in test [3], in test [4], in test [5] and in [17] was above 100 µM throughout. Moreover, the TGI in test [7], in test [8], in [9], in [10], in [11] and in test [12] was above 100 µM each time. Further, the TGI in test [13], in test [14], in [18] and in test [15] was above 100 µM in each case.

Consider `CCN(CC)C(=S)SC(C(=O)Nc1nnc(-c2ccccc2)o1)c1ccccc1` (stereo not drawn), for which the TGI in test [1] is 34.8 µM; in test [2], 31.6 µM; in test [3], 41.8 µM; in test [4], 35 µM; in test [5] it was 57.8 µM; in test [6], 47.7 µM. Besides, the TGI in test [17] is 49.2 µM; in test [7], above 100 µM; in test [8], 57.7 µM; in test [9] it was above 100 µM; in test [11], above 100 µM; in test [12] it was 66.8 µM. Moreover, the TGI stood at 35.7 µM in test [13], 17 µM in test [14] and 32.3 µM in [15].

Consider `CC(=O)O[C@@]12CO[C@@H]1C[C@@H](O)[C@@]1(C)C(=O)[C@H](O)C3=C(C)[C@@H](OC(=O)[C@H](O)[C@@H](NC(=O)c4ccccc4)c4ccccc4)C[C@@](O)([C@@H](OC(=O)c4ccccc4)C12)C3(C)C` (stereo partly drawn), for which the TGI in test [2] was 25.1 µM; in test [4] it was above 100 µM; in test [5], above 100 µM; in [6], above 100 µM; in test [7] it was above 100 µM; in test [8] it was 57 µM. For the same compound, the TGI was above 100 µM in test [9]; above 100 µM in test [10]; above 69.7 µM in [11]; above 100 µM in [12]; above 100 µM in test [13]; 41.9 µM in test [14]. Also, the results for the TGI in [18] and in [15] were above 39.9 µM and above 100 µM, respectively.

Consider `CCOC(OCC)N1C(=O)C2(C(OCC)OCC)CC3C(OC(=O)N3N)c3cccc1c32` (stereo not drawn), for which the TGI in [1], in test [2], in [3], in test [4], in [5] and in test [6] was above 100 µM each time. Also, the TGI in test [7], in test [8], in test [9], in [10], in [11] and in [13] was above 100 µM throughout. Further, the TGI in test [14], in test [18] and in [15] was above 100 µM throughout.
